{"source": "patent US20080085889A1", "about": "“Amidomethyl-Substituted 1-(Carboxyalkyl) Cyclopentyl-Carbonylamino-Benzazepine-N-Acetic Acid Compounds, Process and Intermediate Products for Their Preparation and Pharmaceutical Compositions Containing Them” (SOLVAY PHARMACEUTICALS GmbH, priority 2003, published 2008)", "tested_on": "pyramidal neurons of the hippocampal CA3 subfield", "assay": "Traumatic brain injury: delayed apoptotic neuronal death, neuronal densities in CA3 hippocampus", "type": "in vivo, Adult Wistar rats", "settings": "for Neuronal densities CA3 hippocampus: traumatized right side, ± SEM", "procedure": "1. Traumatic Brain Injury: Delayed Apoptotic Neuronal Death\nContusing device. The contusing device consisted of a stainless steel tube, 40 cm in length, perforated at 1 cm intervals to prevent air compression in the tube. Adult Wistar rats, 230-270 g, were anesthetized with chloral hydrate, 400 mg/kg i.p., a craniotomy over the right hemisphere was made, the device guiding a falling weight onto the footplate resting upon the surface of the dura was placed perpendicular to the surface of the skull, and a force of 380 g×cm produced by a 20 g weight was selected to produce brain contusion. A maximum of 2.5 mm depression of the brain surface was allowed to avoid mechanical puncture of the dura. The center of the footplate was stereotaxically positioned 1.5 mm posterior and 2.5 mm lateral to the bregma. The rats underwent perfusion fixation 3 days after brain injury with a solution containing 4% paraformaldehyde in phosphate buffer.\nIntracerebroventricular injections: Compounds were administered intracerebroventricularly (=i.c.v.) by means of a Hamilton syringe in a volume of 5-15 μl. Injections were performed over 5 min, 15 min-8 hrs after trauma using the following stereotaxic coordinates: AP=−0.5 mm, L=−2 mm and V=−5.5 in relation to bregma (Swanson, L. W. (1992) Brain Maps: Structure of the Rat Brain, Elsevier, Amsterdam).\nMorphometric analysis in hippocampus. The damage in the hippocampal CA3 subfield was determined stereologically at 5 different rostrocaudal levels extending from 10.21 to 11.21 mm (Swanson, L. W. (1992) Brain Maps Structure of the Rat Brain, Elsevier, Amsterdam) and throughout its mediolateral axis three days after traumatic injury. To quantitatively assess neuronal loss in the hippocampus, stereological disector technique (Cruz-Orive, L. M. & Weibel, E. R. (1990) Am. J. Physiol. 258, L148-L156) was used to estimate numerical density (Nv) of pyramidal neurons. An unbiased counting frame (0.05 mm×0.05 mm; disector height 0.01 mm) and a high-aperture objective (×40) were used for sampling. Normal neurons were identified by the presence of the typical nuclei with clear nucleoplasm and distinct nucleolus surrounded by cytoplasm containing Nissl substance. The border between CA2 and CA3 subfields was considered as the point where the looser arrangement of large pyramidal cells goes into densely packed pyramidal cells of the subfield CA3. An arbitrary line connecting the lateral ends of the dentate granule cell layers was considered a junction between subfields CA3 and CA4.\nDose response of the neuroprotective effect of the test substance of Example 3 when administered i.c.v. 15 min after trauma to adult Wistar rats was measured. Neuronal densities were determined in the CA3 hippocampal subfield as described in the methods. Densities of CA3 neurons ±Standard Error of […] (=SEM) in 6 stereotactic levels in the left non-traumatized side of vehicle treated rats and the traumatized right side of vehicle treated rats and in rats treated with the test substance of Example 3 were measured and the results listed in table 6 below.\nThe time window of the neuroprotective effect of test substance of Example 3 when administered i.c.v. 2, 4 or 8 hrs after trauma to adult Wistar rats was measured. Neuronal densities were determined in the CA3 hippocampal subfield as described in the methods. Densities of CA3 neurons ±SEM in 6 stereotactic levels in the traumatized right side of rats treated with either vehicle or the test compound of Example 3 were measured and the results listed in table 7 below."}
{"smiles": "CC(C)NC(=O)CC(CC1(C(=O)N[C@H]2CCc3ccccc3N(CC(=O)O)C2=O)CCCC1)C(=O)O", "note": "(stereo in doubt) [Example 3, (2″rel1″)-2-{[(3S)-1-({[1-(carboxymethyl)-2-oxo-2,3,4,5-tetrahydro-1H-1-benzazepin-3-yl]amino}-carbonyl)cyclopentyl]methyl}-4-(isopropylamino)-4-oxobutyric acid]", "values": [{"measurement": "Neuronal densities CA3 hippocampus", "setting": "3 μg i.c.v. 15 min after trauma, stereotactic level 10.21", "result": "98.40 ± 4.39", "unit": "cells × 10^3/mm^3"}, {"measurement": "Neuronal densities CA3 hippocampus", "setting": "3 μg i.c.v. 15 min after trauma, stereotactic level 10.41", "result": "89.00 ± 5.05", "unit": "cells × 10^3/mm^3"}, {"measurement": "Neuronal densities CA3 hippocampus", "setting": "3 μg i.c.v. 15 min after trauma, stereotactic level 10.61", "result": "72.80 ± 6.01", "unit": "cells × 10^3/mm^3"}, {"measurement": "Neuronal densities CA3 hippocampus", "setting": "3 μg i.c.v. 15 min after trauma, stereotactic level 10.81", "result": "84.20 ± 6.47", "unit": "cells × 10^3/mm^3"}, {"measurement": "Neuronal densities CA3 hippocampus", "setting": "3 μg i.c.v. 15 min after trauma, stereotactic level 11.01", "result": "86.00 ± 7.44", "unit": "cells × 10^3/mm^3"}, {"measurement": "Neuronal densities CA3 hippocampus", "setting": "3 μg i.c.v. 15 min after trauma, stereotactic level 11.21", "result": "95.40 ± 6.96", "unit": "cells × 10^3/mm^3"}, {"measurement": "effect on hippocampal neuronal loss", "setting": "10 μg i.c.v. 2, 4 or 8 hrs after trauma, P<0.001 at 2 and 4 hrs, P<0.01 for 8 hrs", "result": "partially prevented hippocampal neuronal loss"}, {"measurement": "Neuronal densities CA3 hippocampus", "setting": "10 μg i.c.v. 15 min after trauma, stereotactic level 10.21", "result": "108.60 ± 4.30", "unit": "cells × 10^3/mm^3"}, {"measurement": "Neuronal densities CA3 hippocampus", "setting": "10 μg i.c.v. 15 min after trauma, stereotactic level 10.41", "result": "108.60 ± 5.34", "unit": "cells × 10^3/mm^3"}, {"measurement": "Neuronal densities CA3 hippocampus", "setting": "10 μg i.c.v. 15 min after trauma, stereotactic level 10.61", "result": "111.40 ± 7.09", "unit": "cells × 10^3/mm^3"}, {"measurement": "Neuronal densities CA3 hippocampus", "setting": "10 μg i.c.v. 15 min after trauma, stereotactic level 10.81", "result": "112.00 ± 6.42", "unit": "cells × 10^3/mm^3"}, {"measurement": "Neuronal densities CA3 hippocampus", "setting": "10 μg i.c.v. 15 min after trauma, stereotactic level 11.01", "result": "111.40 ± 7.11", "unit": "cells × 10^3/mm^3"}, {"measurement": "Neuronal densities CA3 hippocampus", "setting": "10 μg i.c.v. 15 min after trauma, stereotactic level 11.21", "result": "119.20 ± 3.70", "unit": "cells × 10^3/mm^3"}, {"measurement": "Neuronal densities CA3 hippocampus", "setting": "10 μg i.c.v. 2 hrs after trauma, stereotactic level 10.21", "result": "72.30 ± 4.80", "unit": "cells × 10^3/mm^3"}, {"measurement": "Neuronal densities CA3 hippocampus", "setting": "10 μg i.c.v. 2 hrs after trauma, stereotactic level 10.41", "result": "68.10 ± 6.30", "unit": "cells × 10^3/mm^3"}, {"measurement": "Neuronal densities CA3 hippocampus", "setting": "10 μg i.c.v. 2 hrs after trauma, stereotactic level 10.61", "result": "60.80 ± 5.60", "unit": "cells × 10^3/mm^3"}, {"measurement": "Neuronal densities CA3 hippocampus", "setting": "10 μg i.c.v. 2 hrs after trauma, stereotactic level 10.81", "result": "60.20 ± 9.40", "unit": "cells × 10^3/mm^3"}, {"measurement": "Neuronal densities CA3 hippocampus", "setting": "10 μg i.c.v. 2 hrs after trauma, stereotactic level 11.01", "result": "63.00 ± 11.70", "unit": "cells × 10^3/mm^3"}, {"measurement": "Neuronal densities CA3 hippocampus", "setting": "10 μg i.c.v. 2 hrs after trauma, stereotactic level 11.21", "result": "67.70 ± 14.00", "unit": "cells × 10^3/mm^3"}, {"measurement": "Neuronal densities CA3 hippocampus", "setting": "10 μg i.c.v. 4 hrs after trauma, stereotactic level 10.21", "result": "72.20 ± 5.70", "unit": "cells × 10^3/mm^3"}, {"measurement": "Neuronal densities CA3 hippocampus", "setting": "10 μg i.c.v. 4 hrs after trauma, stereotactic level 10.41", "result": "65.90 ± 8.80", "unit": "cells × 10^3/mm^3"}, {"measurement": "Neuronal densities CA3 hippocampus", "setting": "10 μg i.c.v. 4 hrs after trauma, stereotactic level 10.61", "result": "63.00 ± 6.30", "unit": "cells × 10^3/mm^3"}, {"measurement": "Neuronal densities CA3 hippocampus", "setting": "10 μg i.c.v. 4 hrs after trauma, stereotactic level 10.81", "result": "60.50 ± 10.50", "unit": "cells × 10^3/mm^3"}, {"measurement": "Neuronal densities CA3 hippocampus", "setting": "10 μg i.c.v. 4 hrs after trauma, stereotactic level 11.01", "result": "62.20 ± 13.50", "unit": "cells × 10^3/mm^3"}, {"measurement": "Neuronal densities CA3 hippocampus", "setting": "10 μg i.c.v. 4 hrs after trauma, stereotactic level 11.21", "result": "66.30 ± 15.90", "unit": "cells × 10^3/mm^3"}, {"measurement": "Neuronal densities CA3 hippocampus", "setting": "10 μg i.c.v. 8 hrs after trauma, stereotactic level 10.21", "result": "62.00 ± 4.90", "unit": "cells × 10^3/mm^3"}, {"measurement": "Neuronal densities CA3 hippocampus", "setting": "10 μg i.c.v. 8 hrs after trauma, stereotactic level 10.41", "result": "53.00 ± 6.44", "unit": "cells × 10^3/mm^3"}, {"measurement": "Neuronal densities CA3 hippocampus", "setting": "10 μg i.c.v. 8 hrs after trauma, stereotactic level 10.61", "result": "53.00 ± 6.00", "unit": "cells × 10^3/mm^3"}, {"measurement": "Neuronal densities CA3 hippocampus", "setting": "10 μg i.c.v. 8 hrs after trauma, stereotactic level 10.81", "result": "52.50 ± 4.48", "unit": "cells × 10^3/mm^3"}, {"measurement": "Neuronal densities CA3 hippocampus", "setting": "10 μg i.c.v. 8 hrs after trauma, stereotactic level 11.01", "result": "61.80 ± 4.48", "unit": "cells × 10^3/mm^3"}, {"measurement": "Neuronal densities CA3 hippocampus", "setting": "10 μg i.c.v. 8 hrs after trauma, stereotactic level 11.21", "result": "65.90 ± 4.90", "unit": "cells × 10^3/mm^3"}, {"measurement": "Neuronal densities CA3 hippocampus", "setting": "30 μg i.c.v. 15 min after trauma, stereotactic level 10.21", "result": "108.40 ± 3.15", "unit": "cells × 10^3/mm^3"}, {"measurement": "Neuronal densities CA3 hippocampus", "setting": "30 μg i.c.v. 15 min after trauma, stereotactic level 10.41", "result": "105.20 ± 5.76", "unit": "cells × 10^3/mm^3"}, {"measurement": "Neuronal densities CA3 hippocampus", "setting": "30 μg i.c.v. 15 min after trauma, stereotactic level 10.61", "result": "94.20 ± 5.10", "unit": "cells × 10^3/mm^3"}, {"measurement": "Neuronal densities CA3 hippocampus", "setting": "30 μg i.c.v. 15 min after trauma, stereotactic level 10.81", "result": "83.20 ± 7.10", "unit": "cells × 10^3/mm^3"}, {"measurement": "Neuronal densities CA3 hippocampus", "setting": "30 μg i.c.v. 15 min after trauma, stereotactic level 11.01", "result": "80.20 ± 7.45", "unit": "cells × 10^3/mm^3"}, {"measurement": "Neuronal densities CA3 hippocampus", "setting": "30 μg i.c.v. 15 min after trauma, stereotactic level 11.21", "result": "90.00 ± 9.24", "unit": "cells × 10^3/mm^3"}, {"measurement": "effect on hippocampal neuronal loss", "setting": "3, 10 or 30 μg i.c.v. 15 min after trauma, ANOVA P<0.001 for all three doses", "result": "partially prevented hippocampal neuronal loss"}, {"measurement": "neuroprotective effect (time window)", "setting": "administered i.c.v. up to 8 hrs after trauma", "result": "neuroprotective effect was still evident"}, {"measurement": "neuroprotective effect (dose response)", "setting": "i.c.v. after trauma", "result": "dose-dependent neuroprotective effect"}, {"measurement": "most effective dose against hippocampal neuronal loss", "setting": "of 3, 10 or 30 μg i.c.v. 15 min after trauma", "result": 10, "unit": "µg"}]}
